Test results from patent US20130338367A1, “PYRAZOLE DERIVATIVES AND PESTICIDES” (Nissan Chemical Industries, Ltd., priority 2011, published 2013).
Where a name gives a salt, the structure may show the parent alone.

Columns and labels:
[1] = system: Nilaparvata lugens; assay: Insecticidal Test on Nilaparvata lugens; type: in vivo; conditions: 144 h, 500 ppm solution, rice sheaths soaked, 2nd-instar nymphs, 25° C., 6 days after, read-out: mortality (%)
Procedure: 10% emulsifiable concentrates (or 10% wettable powders) of compounds of the present invention were diluted with water containing a spreader to obtain 500 ppm solutions. Rice sheaths were soaked in the solutions for about 10 seconds, dried in air and put in test tubes. In each tube, five 2nd-instar nymphs of Nilaparvata lugens were released, and the tubes were capped with sponge and placed in an incubator at 25° C. 6 Days after, dead insects were counted, and the mortality (%) (the number of dead insects÷the number of released insects×100) was calculated. The test was carried out in duplicate.

[2] = system: Bemisia argentifolii; assay: Insecticidal Test on Bemisia argentifolii; type: in vivo; conditions: 120 h, 500 ppm solution sprayed on kidney bean leaves, adults, 25° C., 5 days after, read-out: mortality
Procedure: In styrol cups having an inner diameter of 7 cm, wet filter paper was laid, and kidney bean leaves cut to 3 cm were laid on the paper. 10% emulsifiable concentrates (or 10% wettable powders) of compounds of the present invention were diluted with water containing a spreader to obtain 500 ppm solutions. 2.5 ml of the solutions were sprayed from a rotary spray tower into the styrol cups (2.5 mg/cm^2). The leaves were dried in air, and adults of Bemisia argentifolii were released in the cups. The cups were closed and placed in an incubator at 25° C. 5 Days after, dead insects were counted, and the mortality was calculated by using the same equation as in Test Example 1. The test was carried out in duplicate.

[3] = system: Myzus persicae; assay: Insecticidal Test on Myzus persicae; type: in vivo; conditions: foliar, 144 h, 500 ppm solution sprayed, apterous adults on leaf discs, 25° C., 6 days after, read-out: mortality
Procedure: (§1) Wet absorbent cotton was laid on glass dishes having an inner diameter of 3 cm, and covered with leaves of Canarium album cut into circles of the same diameter, and 4 apterous adults of Myzus persicae were released. After a day, 10% emulsifiable concentrates (or 10% wettable powders) of compounds of the present invention were diluted with water containing a spreader to obtain 500 ppm solutions, and the solution were sprayed from a rotary spray tower (2.5 mg/cm^2). The dishes were covered with lids and placed in an incubator at 25° C. 6 Days after, dead insects were counted, and the mortality was calculated by using the same equation as in Test Example 1. The test was carried out in duplicate.

[4] = system: Aphis gossypii; assay: Insecticidal Test on Aphis gossypii; type: in vivo; conditions: foliar, 144 h, 500 ppm solution sprayed, apterous adults on cucumber leaf discs, 25° C., 6 days after, read-out: mortality
Procedure: as §1, with “cucumber” for “Canarium album”, “Aphis gossypii” for “Myzus persicae”

[5] = system: Myzus persicae; assay: Soil Irrigation Test on Myzus persicae; type: in vivo; conditions: 144 h, 100 ppm solution, 10 ml soil irrigation of cabbage seedlings, greenhouse, 6 days after release of insects
Procedure: 10% emulsifiable concentrates of compounds of the present invention were diluted with tap water to obtain 100 ppm solutions. The soil around the bases of cabbage seedlings (at the 2.5 true leaf stage) planted in plastic cups was irrigated with 10 ml of the solutions, and the cups were placed in a greenhouse. One day after the irrigation, adults of Myzus persicae were released at a ratio of 20 insects per seedling, and the seedlings were incubated in the greenhouse. 6 Days after the release of the insects, living insects were counted, and the control value was calculated from the following equation.
Control value (%)={1−(Cb×Tai)/(Cai×Tb)}×100
Cb: the number of insects in a non-treated area before treatment
Cai: the final number of living insects in a non-treated area
Tb: the number of insects in a treated area before treatment
Tai: the final number of living insects in a treated area

SMILES | melting point [°C] | mortality at 500 ppm [1] [%] | mortality at 500 ppm [2] [%] | mortality at 500 ppm [3] [%] | mortality at 500 ppm [4] [%] | pest or weed control at 100 ppm [5] [%]
CSCC1CCN(c2cn(-c3cccnc3)nc2Cl)C1=O (stereo not shown) [1-141, 1-{3-chloro-1-(pyridin-3-yl)-1H-pyrazol-4-yl}-3-(methylthiomethyl)pyrrolidin-2-one] | 83 to 84 | – | – | – | – | –
CCN(C(=O)[C@H](C)CSC)c1cn(-c2cccnc2)nc1Cl [1-048(S)-(−), (S)-(−)-N-{3-chloro-1-(pyridin-3-yl)-1H-pyrazol-4-yl}-N-ethyl-2-methyl-3-(methylthio)propanamide] | – | ≥ 90 | ≥ 90 | ≥ 90 | ≥ 90 | ≥ 90
CCSC(C)C(=S)Nc1cn(-c2cccnc2)nc1Cl (stereo not shown) [1-353, N-{3-chloro-1-(pyridin-3-yl)-1H-pyrazol-4-yl}-2-(ethylthio)propanethioamide] | – | ≥ 90 | – | – | – | ≥ 90
O=C1CCCCN1c1cnn(-c2cccnc2)c1 [1-034, 1-{1-(pyridin-3-yl)-1H-pyrazol-4-yl}piperidin-2-one] | 123 to 124 | – | – | – | – | –
CN(C(=O)CCS(C)(=O)=O)c1cn(-c2cccnc2)nc1Cl [1-052, N-{3-chloro-1-(pyridin-3-yl)-1H-pyrazol-4-yl}-N-methyl-3-(methylsulfonyl)propanamide] | 90 to 91 | – | – | – | – | ≥ 90
CSCCC(=O)N(C)c1cn(-c2cccnc2)nc1Cl [1-038, N-{3-chloro-1-(pyridin-3-yl)-1H-pyrazol-4-yl}-N-methyl-3-(methylthio)propanamide] | – | – | – | – | – | ≥ 90
CCSC(C)C(=O)N(CC)c1cn(-c2cccnc2)nc1Cl (stereo not shown) [1-118, N-{3-chloro-1-(pyridin-3-yl)-1H-pyrazol-4-yl}-N-ethyl-2-(ethylthio)propanamide] | 65 to 66 | – | – | – | – | ≥ 90
O=C(Nc1cnn(-c2cccnc2)c1)C(Br)CCCBr (stereo not shown) [1-025, 2,5-dibromo-N-{1-(pyridin-3-yl)-1H-pyrazol-4-yl}pentanamide] | 114 to 115 | – | – | – | – | –
CSCC(=O)N(C)C(C)=Nc1cn(-c2cccnc2)nc1C [3-004, N-methyl-N-[1-{3-methyl-1-(pyridin-3-yl)-1H-pyrazol-4-ylimino}ethyl]-2-(methylthio)acetamide] | – | ≥ 90 | ≥ 90 | – | – | ≥ 90
CSCC(C)(C)C(=O)N(C)c1cn(-c2cccnc2)nc1Cl [1-134, N-{3-chloro-1-(pyridin-3-yl)-1H-pyrazol-4-yl}-N,2,2-trimethyl-3-(methylthio)propanamide] | – | ≥ 90 | ≥ 90 | ≥ 90 | ≥ 90 | ≥ 90
Cc1nn(-c2cccnc2)cc1NC(=O)OC(C)(C)C [1-011, tert-butyl 3-methyl-1-(pyridin-3-yl)-1H-pyrazol-4-ylcarbamate] | – | ≥ 90 | ≥ 90 | ≥ 90 | ≥ 90 | ≥ 90

Now from value to molecule, other results behind:

melting point [°C] | SMILES | mortality at 500 ppm [1] [%] | mortality at 500 ppm [2] [%] | mortality at 500 ppm [3] [%] | mortality at 500 ppm [4] [%] | pest or weed control at 100 ppm [5] [%]
113 to 116 | CCNc1cn(-c2cccnc2)nc1C (as salt: hydrochloride) [B-002, N-ethyl-3-methyl-1-(pyridin-3-yl)-1H-pyrazole-4-amine] | – | – | – | – | –
140 to 150 | CS(=O)(=O)Nc1cnn(-c2cccnc2)c1 [2-001] | – | – | – | – | –
72 to 78 | Clc1nn(-c2cccnc2)cc1NCC1CC1 [B-014, 3-chloro-N-(cyclopropylmethyl)-1-(pyridin-3-yl)-1H-pyrazole-4-amine] | – | – | – | – | –
